Assay results: ChEMBL document CHEMBL4304829, “PROTAC Degradation of IRAK4 for the Treatment of Cancer” (ACS Med Chem Lett, 2019)

Tests used:
Assay type in all cases: cell-based
[1] = molecular target: T1, Protein cereblon/Interleukin-1 receptor-associated kinase 4 (Homo sapiens) (UniProt Q9NWZ3+Q96SW2); experiment: Protac activity at IRAK4 in human OCl-LY10 cells assessed as increase in E3 ubiquitin ligase mediated IRAK4 degradation at 0.01 uM incubated for 4 hrs by Western blot analysis relative to control
[2] = molecular target: T1, Protein cereblon/Interleukin-1 receptor-associated kinase 4 (Homo sapiens); experiment: Protac activity at IRAK4 in human OCl-LY10 cells assessed as increase in E3 ubiquitin ligase mediated IRAK4 degradation at 0.1 uM incubated for 4 hrs by Western blot analysis relative to control
[3] = molecular target: T1, Protein cereblon/Interleukin-1 receptor-associated kinase 4 (Homo sapiens); experiment: Protac activity at IRAK4 in human OCl-LY10 cells assessed as increase in E3 ubiquitin ligase mediated IRAK4 degradation at 1 uM incubated for 4 hrs by Western blot analysis relative to control

T1 sequence (Q96SW2 whole entry, looked up): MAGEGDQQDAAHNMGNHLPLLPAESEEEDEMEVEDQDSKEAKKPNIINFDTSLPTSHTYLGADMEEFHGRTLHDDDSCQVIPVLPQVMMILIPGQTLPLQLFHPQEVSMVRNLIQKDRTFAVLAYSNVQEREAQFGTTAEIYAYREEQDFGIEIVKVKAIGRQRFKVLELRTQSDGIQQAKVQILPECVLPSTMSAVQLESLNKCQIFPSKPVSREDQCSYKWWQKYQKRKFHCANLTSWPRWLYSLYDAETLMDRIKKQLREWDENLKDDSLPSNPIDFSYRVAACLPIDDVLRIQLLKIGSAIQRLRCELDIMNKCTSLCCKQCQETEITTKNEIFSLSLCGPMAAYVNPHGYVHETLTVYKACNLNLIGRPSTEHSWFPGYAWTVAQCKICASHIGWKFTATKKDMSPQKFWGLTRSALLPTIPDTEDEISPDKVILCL
T1 sequence (Q9NWZ3 whole entry, looked up): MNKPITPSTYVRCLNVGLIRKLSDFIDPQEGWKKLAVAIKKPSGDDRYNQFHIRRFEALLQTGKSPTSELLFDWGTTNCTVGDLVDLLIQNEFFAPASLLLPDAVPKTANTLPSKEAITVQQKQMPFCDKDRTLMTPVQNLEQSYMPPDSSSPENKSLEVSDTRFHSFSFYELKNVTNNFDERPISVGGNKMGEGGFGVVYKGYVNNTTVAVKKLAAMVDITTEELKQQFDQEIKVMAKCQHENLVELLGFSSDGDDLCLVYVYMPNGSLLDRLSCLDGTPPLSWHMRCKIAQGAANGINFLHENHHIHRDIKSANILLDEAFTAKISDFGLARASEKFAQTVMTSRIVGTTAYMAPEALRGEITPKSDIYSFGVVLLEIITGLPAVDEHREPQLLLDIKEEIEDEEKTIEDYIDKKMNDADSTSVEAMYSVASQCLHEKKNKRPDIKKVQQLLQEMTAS

Compound	Activity [1] [%]	Activity [2] [%]	Activity [3] [%]
O=C1CCC(N2C(=O)c3cccc(NC4CCN(CCOCCOCCNC(=O)c5ccc(-n6cc(NC(=O)c7coc(-c8ccnc(NCC(F)(F)F)c8)n7)c(C(F)F)n6)cc5)CC4)c3C2=O)C(=O)N1 (stereo not given)	> 50	> 50	> 50
CN(CCOCCOCCCc1ccc2c(c1)C(=O)N(C1CCC(=O)NC1=O)C2=O)Cc1ccc(-n2cc(NC(=O)c3coc(-c4ccncc4)n3)c(C(N)=O)n2)cc1 (stereo not given)	> 20	> 50	> 50
CN(CCOCCOCCCc1ccc2c(c1)C(=O)N(C1CCC(=O)NC1=O)C2=O)Cc1ccc(-n2cc(NC(=O)c3coc(-c4ccnc(NCC5CC5)c4)n3)c(C(N)=O)n2)cc1 (stereo not given)	> 20	> 50	> 50
CN(CCOCCCc1cccc2c1C(=O)N(C1CCC(=O)NC1=O)C2=O)Cc1ccc(-n2cc(NC(=O)c3coc(-c4ccnc(NCC5CC5)c4)n3)c(C(N)=O)n2)cc1 (stereo not given)	> 20	> 50	> 50
NCc1nn(-c2ccc(C(=O)NCCOCCOCCNc3cccc4c3C(=O)N(C3CCC(=O)NC3=O)C4=O)cc2)cc1NC(=O)c1coc(-c2ccnc(NCC(F)(F)F)c2)n1 (stereo not given)	> 50	> 50	> 50
O=C1CCC(n2c(=O)oc3c(CCCOCCOCCNC(=O)c4ccc(-n5cc(NC(=O)c6coc(-c7ccnc(NCC8CC8)c7)n6)c(C(F)F)n5)cc4)cccc32)C(=O)N1 (stereo not given)	> 20	> 50	> 50
O=C1CCC(N2C(=O)c3cccc(NCCNCCOCCNC(=O)c4ccc(-n5cc(NC(=O)c6coc(-c7ccnc(NCC8CC8)c7)n6)c(C(F)(F)F)n5)cc4)c3C2=O)C(=O)N1 (stereo not given)	> 50	> 50	> 50
CN(CCOCCOCCCc1ccc2c(c1)C(=O)N(C1CCC(=O)NC1=O)C2=O)C(=O)c1ccc(-n2cc(NC(=O)c3coc(-c4ccnc(NCC5CC5)c4)n3)c(C(N)=O)n2)cc1 (stereo not given)	> 50	> 50	> 50
NC(=O)c1nn(-c2ccc(C(=O)NCC3CCCCN3CCOCCNc3cccc4c3C(=O)N(C3CCC(=O)NC3=O)C4=O)cc2)cc1NC(=O)c1coc(-c2ccnc(NCC(F)(F)F)c2)n1 (stereo not given)	> 50	> 50	> 50
NC(=O)c1nn(-c2ccc(CNCC3CN(CCOCCNc4cccc5c4C(=O)N(C4CCC(=O)NC4=O)C5=O)CCO3)cc2)cc1NC(=O)c1coc(-c2ccnc(NCC(F)(F)F)c2)n1 (stereo not given)	> 50	> 50	> 50
